28 molecules from US9067943B2, “[1,2,3]triazolo[4,5-D]pyrimidine derivatives” (priority 2011, dated 2015) can be followed below.

For assay [1], the target named is T1, human CB1 receptors (Homo sapiens, UniProt P21554).
T1 construct: expressed in transfected cells; host or cells: CHO cells
In words: cAMP assay. It counts as cell-based. In outline: (§1)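 CHO cells expressing human CB1 or CB2 were preincubated 30 min at 30 °C in Krebs Ringer bicarbonate buffer with 1 mM IBMX, then exposed to compounds for 30 min at 30 °C. cAMP was measured by time-resolved FRET against a cAMP standard curve, and EC50 values were derived.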
(In general: Changes in cAMP serve as a functional read-out for many G protein-coupled receptors.)

The target of assay [2] is T2, human CB2 receptors (Homo sapiens, UniProt P34972).
T2 construct: expressed in transfected cells; host or cells: CHO cells
Description: cAMP assay. The class given is cell-based. Put shortly: as §1

The mark [3] stands for this setting: functional cAMP assay, CHO cells expressing human CB2, read-out: human CB2 EC50.

Like-named read-outs stand apart in the source and are kept apart here.

T2 sequence (P34972 whole entry): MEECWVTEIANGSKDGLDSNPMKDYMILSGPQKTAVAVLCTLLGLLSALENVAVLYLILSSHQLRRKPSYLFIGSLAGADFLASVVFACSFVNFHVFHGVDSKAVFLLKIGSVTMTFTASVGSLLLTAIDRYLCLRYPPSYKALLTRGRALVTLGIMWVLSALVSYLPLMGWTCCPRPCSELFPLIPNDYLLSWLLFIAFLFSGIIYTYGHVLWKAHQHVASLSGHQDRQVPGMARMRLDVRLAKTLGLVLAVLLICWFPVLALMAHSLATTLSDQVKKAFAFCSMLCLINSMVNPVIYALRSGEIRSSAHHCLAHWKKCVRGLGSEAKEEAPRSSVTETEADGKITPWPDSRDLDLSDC
T1 sequence (P21554 whole entry): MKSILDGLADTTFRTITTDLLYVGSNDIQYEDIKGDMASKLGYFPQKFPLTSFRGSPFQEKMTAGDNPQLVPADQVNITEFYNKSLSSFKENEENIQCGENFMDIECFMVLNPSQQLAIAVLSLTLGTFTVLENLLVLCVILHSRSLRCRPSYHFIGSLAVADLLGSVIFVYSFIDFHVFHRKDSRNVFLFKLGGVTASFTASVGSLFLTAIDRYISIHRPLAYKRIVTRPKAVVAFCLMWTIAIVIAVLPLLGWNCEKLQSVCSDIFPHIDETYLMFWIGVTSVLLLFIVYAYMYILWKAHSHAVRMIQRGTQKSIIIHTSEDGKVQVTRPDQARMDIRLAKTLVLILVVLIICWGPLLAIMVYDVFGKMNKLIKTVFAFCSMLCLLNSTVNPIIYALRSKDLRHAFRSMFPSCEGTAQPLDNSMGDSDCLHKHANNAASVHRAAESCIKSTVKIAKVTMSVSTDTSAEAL

On to `CC(C)(C)c1nc(N2CCC(F)(F)C2)c2nn(CC(=O)c3ccccn3)nc2n1` [Example 64, 2-[5-tert-Butyl-7-(3,3-difluoro-pyrrolidin-1-yl)-[1,2,3]triazolo[4,5-d]pyrimidin-2-yl]-1-pyridin-2-yl-ethanone], for which the EC50 in assay [1] is more than 10000 nM; in assay [2], 2.4 nM.

Take `Cc1nnc(Cn2nc3nc(C(C)(C)C)nc(N4CCC(F)(F)C4)c3n2)o1` [Example 65, 5-tert-Butyl-7-(3,3-difluoro-pyrrolidin-1-yl)-2-(5-methyl-[1,3,4]oxadiazol-2-ylmethyl)-2H-[1,2,3]triazolo[4,5-d]pyrimidine]: the figures for the EC50 in assay [1] and in assay [2] were more than 10000 nM and 18.6 nM, respectively.

As to `CC(C)(C)c1nc(N2CCC(F)(F)C2)c2nn(Cc3ccncc3Cl)nc2n1` [Example 66, 5-tert-Butyl-2-(3-chloro-pyridin-4-ylmethyl)-7-(3,3-difluoro-pyrrolidin-1-yl)-2H-[1,2,3]triazolo[4,5-d]pyrimidine], the 50% effective concentration (EC50) in assay [1] is 234 nM; in assay [2], 0.4 nM.

Turning to `Cc1nc(Cn2nc3nc(C(C)(C)C)nc(N4CCC(F)(F)C4)c3n2)no1` [Example 67, 5-tert-Butyl-7-(3,3-difluoro-pyrrolidin-1-yl)-2-(5-methyl-[1,2,4]oxadiazol-3-ylmethyl)-2H-[1,2,3]triazolo[4,5-d]pyrimidine], the half-maximal effective concentration (EC50) in assay [1] came out at 1630 nM; in assay [2], 1.3 nM.

In the case of `Cn1nnnc1Cn1nc2nc(C(C)(C)C)nc(N3CCC(F)(F)C3)c2n1` [Example 68, 5-tert-Butyl-7-(3,3-difluoro-pyrrolidin-1-yl)-2-(1-methyl-1H-tetrazol-5-ylmethyl)-2H-[1,2,3]triazolo[4,5-d]pyrimidine], the half-maximal effective concentration (EC50) in assay [1] is more than 10000 nM; in assay [2] it was 2.3 nM.

Turning to `Cn1ncnc1Cn1nc2nc(C(C)(C)C)nc(N3CCC(F)(F)C3)c2n1` [Example 69, 5-tert-Butyl-7-(3,3-difluoro-pyrrolidin-1-yl)-2-(2-methyl-2H-[1,2,4]triazol-3-ylmethyl)-2H-[1,2,3]triazolo[4,5-d]pyrimidine], the EC50 in assay [1] was more than 10000 nM; in assay [2], 1.1 nM.

As to `Cn1c(Cn2nc3nc(C(C)(C)C)nc(N4CCC(F)(F)C4)c3n2)nnc1S(C)(=O)=O` [Example 70, 5-tert-Butyl-7-(3,3-difluoro-pyrrolidin-1-yl)-2-(5-methanesulfonyl-4-methyl-4H-[1,2,4]triazol-3-ylmethyl)-2H-[1,2,3]triazolo[4,5-d]pyrimidine], the figures for the EC50 in assay [1] and in assay [2] were more than 10000 nM and 33.6 nM, respectively.

Take `CN(C)c1c(Cl)cncc1Cn1nc2nc(C(C)(C)C)nc(N3CCC(F)(F)C3)c2n1` [Example 71, {3-[5-tert-Butyl-7-(3,3-difluoro-pyrrolidin-1-yl)-[1,2,3]triazolo[4,5-d]pyrimidin-2-ylmethyl]-5-chloro-pyridin-4-yl}-dimethyl-amine]: the concentration giving a half-maximal response (EC50) in assay [1] is 105 nM; in assay [2], 1.4 nM.

`CC(C)(C)c1nc(N2CCC(F)(F)C2)c2nn(Cc3c[nH]nc3C(F)(F)F)nc2n1` [Example 72, 5-tert-Butyl-7-(3,3-difluoro-pyrrolidin-1-yl)-2-(3-trifluoromethyl-1H-pyrazol-4-ylmethyl)-2H-[1,2,3]triazolo[4,5-d]pyrimidine]: the EC50 in assay [1] is more than 10000 nM; in assay [2], 11.8 nM.

On to `Cc1nonc1Cn1nc2nc(C(C)(C)C)nc(N3CC[C@H](O)C3)c2n1` [Example 73, (S)-1-[5-tert-Butyl-2-(4-methyl-furazan-3-ylmethyl)-2H-[1,2,3]triazolo[4,5-d]pyrimidin-7-yl]-pyrrolidin-3-ol], for which the concentration for a half-maximal effect (EC50) was more than 10000 nM in assay [1] and 7.1 nM in assay [2].

For `Cc1noc(Cn2nc3nc(C(C)(C)C)nc(N4CC[C@H](O)C4)c3n2)n1` [Example 74, (S)-1-[5-tert-Butyl-2-(3-methyl-[1,2,4]oxadiazol-5-ylmethyl)-2H-[1,2,3]triazolo[4,5-d]pyrimidin-7-yl]-pyrrolidin-3-ol], the EC50 was more than 10000 nM in assay [1] and 61.3 nM in assay [2].

Regarding `CC(C)(C)c1nc(N2CC[C@H](O)C2)c2nn(Cc3ncccc3Cl)nc2n1` [Example 75, (S)-1-[5-tert-Butyl-2-(3-chloro-pyridin-2-ylmethyl)-2H-[1,2,3]triazolo[4,5-d]pyrimidin-7-yl]-pyrrolidin-3-ol], the EC50 was more than 10000 nM in assay [1] and 4.6 nM in assay [2].

For the molecule `CC(C)(C)c1nc(N2CC[C@H](O)C2)c2nn(Cc3nc(Cl)ccc3Cl)nc2n1` [Example 76, (S)-1-[5-tert-Butyl-2-(3,6-dichloro-pyridin-2-ylmethyl)-2H-[1,2,3]triazolo[4,5-d]pyrimidin-7-yl]-pyrrolidin-3-ol], the values for the EC50 in assay [1] and in assay [2] were more than 10000 nM and 5.9 nM, respectively.

Consider `CC(C)(C)c1nc(N2CC[C@H](O)C2)c2nn(Cc3cccnc3Cl)nc2n1` [Example 77, (S)-1-[5-tert-Butyl-2-(2-chloro-pyridin-3-ylmethyl)-2H-[1,2,3]triazolo[4,5-d]pyrimidin-7-yl]-pyrrolidin-3-ol], for which the 50% effective concentration (EC50) in assay [1] was more than 10000 nM; in assay [2] it was 15.5 nM.

For the molecule `CC(C)(C)c1nc(N2CC[C@H](O)C2)c2nn(Cc3cccc(Cl)c3Cl)nc2n1` [Example 78, (S)-1-[5-tert-Butyl-2-(2,3-dichloro-benzyl)-2H-[1,2,3]triazolo[4,5-d]pyrimidin-7-yl]-pyrrolidin-3-ol], the EC50 in assay [1] is more than 10000 nM; in assay [2] it was 6 nM.

Turning to `CC(C)(C)c1nc(N2CC[C@H](O)C2)c2nn(Cc3ccccc3C(F)(F)F)nc2n1` [Example 79, (S)-1-[5-tert-Butyl-2-(2-trifluoromethyl-benzyl)-2H-[1,2,3]triazolo[4,5-d]pyrimidin-7-yl]-pyrrolidin-3-ol], the concentration giving a half-maximal response (EC50) in assay [1] is more than 10000 nM; in assay [2], 0.4 nM.

As to `CC(C)(C)c1nc(N2CC[C@H](O)C2)c2nn(Cc3ccccc3S(C)(=O)=O)nc2n1` [Example 80, (S)-1-[5-tert-Butyl-2-(2-methanesulfonyl-benzyl)-2H-[1,2,3]triazolo[4,5-d]pyrimidin-7-yl]-pyrrolidin-3-ol], the results for the 50% effective concentration (EC50) in assay [1] and in assay [2] were more than 10000 nM and 10.3 nM, respectively.

Consider `Cc1cc(Cn2nc3nc(C(C)(C)C)nc(N4CCC(F)(F)C4)c3n2)n(C)n1` [Example 81, 5-tert-Butyl-7-(3,3-difluoro-pyrrolidin-1-yl)-2-(2,5-dimethyl-2H-pyrazol-3-ylmethyl)-2H-[1,2,3]triazolo[4,5-d]pyrimidine], for which the concentration giving a half-maximal response (EC50) in assay [1] is more than 10000 nM; in assay [2], 9.4 nM.

As to `Cn1nncc1Cn1nc2nc(C(C)(C)C)nc(N3CCC(F)(F)C3)c2n1` [Example 82, 5-tert-Butyl-7-(3,3-difluoro-pyrrolidin-1-yl)-2-(3-methyl-3H-[1,2,3]triazol-4-ylmethyl)-2H-[1,2,3]triazolo[4,5-d]pyrimidine], the EC50 was more than 10000 nM in assay [1] and 2.8 nM in assay [2].

Regarding `Cc1nnc(Cn2nc3nc(C(C)(C)C)nc(N4CCC(F)(F)C4)c3n2)n1C` [Example 83, 5-tert-Butyl-7-(3,3-difluoro-pyrrolidin-1-yl)-2-(4,5-dimethyl-4H-[1,2,4]triazol-3-ylmethyl)-2H-[1,2,3]triazolo[4,5-d]pyrimidine], the EC50 in assay [1] is more than 10000 nM; in assay [2], 6.1 nM.

Regarding `Cc1c(Cn2nc3nc(C(C)(C)C)nc(N4CCC(F)(F)C4)c3n2)ccc[n+]1[O-]` [Example 84, 5-tert-Butyl-7-(3,3-difluoro-pyrrolidin-1-yl)-2-(2-methyl-1-oxy-pyridin-3-ylmethyl)-2H-[1,2,3]triazolo[4,5-d]pyrimidine], the half-maximal effective concentration (EC50) in assay [1] was more than 10000 nM; in assay [2], 94 nM.

Turning to `CC(C)(C)c1nc(N2CC[C@H](O)C2)c2nn(Cc3nccc(Cl)c3Cl)nc2n1` [Example 85, (S)-1-[5-tert-Butyl-2-(3,4-dichloro-pyridin-2-ylmethyl)-2H-[1,2,3]triazolo[4,5-d]pyrimidin-7-yl]-pyrrolidin-3-ol], the EC50 in assay [1] is more than 10000 nM; in assay [2] it was 10.2 nM.

For `Cc1nc(Cn2nc3nc(C(C)(C)C)nc(N4CC[C@H](O)C4)c3n2)no1` [Example 86, (S)-1-[5-tert-Butyl-2-(5-methyl-[1,2,4]oxadiazol-3-ylmethyl)-2H-[1,2,3]triazolo[4,5-d]pyrimidin-7-yl]-pyrrolidin-3-ol], the EC50 was more than 10000 nM in assay [1] and 52.2 nM in assay [2].

For `Cc1nnc(Cn2nc3nc(C(C)(C)C)nc(N4CC[C@H](O)C4)c3n2)o1` [Example 87, (S)-1-[5-tert-Butyl-2-(5-methyl-[1,3,4]oxadiazol-2-ylmethyl)-2H-[1,2,3]triazolo[4,5-d]pyrimidin-7-yl]-pyrrolidin-3-ol], the concentration for a half-maximal effect (EC50) was more than 10000 nM in assay [1] and 258 nM in assay [2] (setting [3]).

Regarding `Cn1nnnc1Cn1nc2nc(C(C)(C)C)nc(N3CC[C@H](O)C3)c2n1` [Example 88, (S)-1-[5-tert-Butyl-2-(1-methyl-1H-tetrazol-5-ylmethyl)-2H-[1,2,3]triazolo[4,5-d]pyrimidin-7-yl]-pyrrolidin-3-ol], the EC50 in assay [1] is more than 10000 nM; in assay [2], 52.1 nM.

Turning to `Cn1ncnc1Cn1nc2nc(C(C)(C)C)nc(N3CC[C@H](O)C3)c2n1` [Example 89, (S)-1-[5-tert-Butyl-2-(2-methyl-2H-[1,2,4]triazol-3-ylmethyl)-2H-[1,2,3]triazolo[4,5-d]pyrimidin-7-yl]-pyrrolidin-3-ol], the EC50 is more than 10000 nM in assay [1] and 372 nM in assay [2] (setting [3]).

In the case of `Cn1nncc1Cn1nc2nc(C(C)(C)C)nc(N3CC[C@H](O)C3)c2n1` [Example 90, (S)-1-[5-tert-Butyl-2-(3-methyl-3H-[1,2,3]triazol-4-ylmethyl)-2H-[1,2,3]triazolo[4,5-d]pyrimidin-7-yl]-pyrrolidin-3-ol], the results for the concentration for a half-maximal effect (EC50) in assay [1] and in assay [2] were more than 10000 nM and 40.7 nM, respectively.

As for `Cc1cc(Cn2nc3nc(C(C)(C)C)nc(N4CC[C@H](O)C4)c3n2)n(C)n1` [Example 91, (S)-1-[5-tert-Butyl-2-(2,5-dimethyl-2H-pyrazol-3-ylmethyl)-2H-[1,2,3]triazolo[4,5-d]pyrimidin-7-yl]-pyrrolidin-3-ol], the values for the EC50 in assay [1] and in assay [2] (setting [3]) were more than 10000 nM and 124 nM, respectively.

Broadly, the EC50 is the concentration that produces a half-maximal response.
